Here are results for 5 compounds from US11478440B2, “Combination of Elafibranor or derivatives thereof with an anti-NASH, anti-fibrotic or anti-cholestatic agent” (GENFIT, priority 2017, dated 2022).

SMILES strings stand for the structures.

The test system of one test is TGFβ1-induced hHSC. The test can be described thus: α-SMA ELISA in TGFβ1-induced human primary hepatic stellate cells. The class given is cell-based. As to the method:
The human primary hepatic stellate cells (hHSC) (Innoprot) were cultured in STeCM medium (ScienCell cat #5301) that was supplemented with 2% fetal bovine serum (FBS, ScienCell cat #0010), 1% penicillin/streptomycin (ScienCell cat #0503) and stellate cell growth supplement (SteCGS; ScienCell cat #5352). Cell culture flasks were coated with Poly-L Lysine (Sigma cat #P4707) for a better adherence.
For these experiments, a checkerboard matrix was generated. ELA and component (ii) stocks were serially diluted in DMSO in 5-points series in a row (ELA) and a 11-points series in a column (component (ii)) of a 96-well plate. Subsequently, the 5×11 combination matrix was generated by 1:1 mixing of all single agent concentrations. The test concentrations for each compound were chosen based on the respective IC50 of each compound as single agent obtained by measuring α-SMA content in the HSC model stimulated with TGF-β1.
The human primary hepatic stellate cells (hHSC) (Innoprot) were cultured under standard conditions, as described above. The cells were subsequently plated at a density of 2×10^4 cells/well into 96-well plates for the measure of α-SMA by ELISA. The next day, cell-culture medium was removed, and cells were washed with PBS (Invitrogen cat #14190). hHSC were deprived for 24 hours in serum-free and SteCGS-free medium. For the treatments with ELA, component (ii) and the respective ELA/component (ii) combinations, the serum-deprived hHSC were preincubated for 1 hour with the compounds followed by addition of the profibrogenic stimuli TGF-β1 (PeproTech cat #100-21, 1 ng/mL) in serum-free and SteCGS-free medium for an additional 48 hour period.
The level of α-SMA was measured using a Sandwich ELISA. Briefly, the wells of an ELISA plate were first coated with the capture antibody (mouse monoclonal anti-ACTA2, Abnova) at 4° C. overnight. After 3 washes in PBS+0.2% Tween 20, a blocking solution consisting of PBS+0.2% BSA was added for one hour followed by another washing cycle. The cell lysates were transferred into the wells for binding to the capture antibody for a period of 2 h at room temperature. After the washing procedure, the detection antibody (biotinylated mouse monoclonal anti-ACTA2, Abnova) was added for 2 hours at room temperature followed by 3 washes. For the detection, an HRP-conjugated Streptavidin (R&D Systems cat #DY998) was first applied for 30 min at room temperature. After washing, the HRP substrate TMB (BD, #555214) was added and incubated for 7 min at room temperature in the dark. Upon oxidation, TMB forms a water-soluble blue reaction product that becomes yellow with addition of sulfuric acid (solution stop), enabling accurate measurement of the intensity at 450 nm using a spectrophotometer. The developed color is directly proportional to the amount of α-SMA present in the lysate.
The human primary hepatic stellate cells (hHSC) (Innoprot) were cultured in STeCM medium (ScienCell cat #5301) that was supplemented with 2% fetal bovine serum (FBS, ScienCell cat #0010), 1% penicillin/streptomycin (ScienCell cat #0503) and stellate cell growth supplement (SteCGS; ScienCell cat #5352). Cell-culture flasks were coated with Poly-L Lysine (Sigma cat #P4707) for a better adherence.
For these experiments, a checkerboard matrix was generated. CVC and Elafibranor stocks were serially diluted in DMSO in a 5-points series in a row (Elafibranor) and a 6-points series in a column (Cenicriviroc) of a 96-well plate. Subsequently, the […] combination matrix was generated by 1:1 mixing of all single agent concentrations. The test concentrations for each compound were chosen based on the respective IC50 of each compound as single agent obtained by measuring α-SMA content in the HSC model stimulated with TGF-β1.
The human primary hepatic stellate cells (hHSC) (Innoprot) were cultured under standard conditions, as described above. […]

Test [1] concerns mice with NASH (CDFF-fed mice). Put plainly: Mouse fibrosing-NASH model (CDFF diet, 8 weeks). Type of test: in vivo, C57Bl/6J mice. The protocol: The preventive effects of the combinations of elafibranor with selonsertib, GKT-831 or GS-0976 were assessed in mice fed a choline-deficient, […] diet (CDAA) supplemented with 2% cholesterol, 30% milk fat diet and high fructose corn syrup 55 (55% fructose/45% glucose for a final concentration of 42 g/L) in drinking water (Mells et al J Nutr Biochem 2015) (CDFF diet). 5-6 weeks old male C57Bl/6J mice were fed a control (CSAA) diet (n=4), CDFF (n=12), or CDFF supplemented with elafibranor (1 or 3 mg/kg/day), selonsertib (30 mg/kg/day), GKT-831 ([…]) alone or in combination (n=8 per group) for 8 weeks.
The body weight, the food and water intake were monitored twice per week. On the last day of treatment, plasma samples were obtained from retro-orbital blood sampling and mice were sacrificed after a 6 h-fasting period. The liver was rapidly excised for biochemical and histological analyses. All animal procedures were performed according to standard protocols and in accordance with the standard recommendations for the proper care and use of laboratory animals.
The liver slices were fixed in a formalin 4% solution. Then, the liver pieces were washed 30 minutes in PBS, and dehydrated in ethanol solutions (successive baths at 70, 80, 95 and 100% ethanol). The liver pieces were incubated in three different baths of Xylene (Honeywell cat #534056), followed by two baths in liquid paraffin (59° C.). Liver pieces were then put into racks that were gently filled with HISTOWAX to completely cover the tissue.
Liver sections were deparaffinized, rehydrated and incubated for 3 minutes in Mayer's Hematoxylin (Microm, cat #F/C0303). Then, the liver sections were rinsed in water and incubated 1 minute in a Eosin Y 0.5% alcoholic (VWR, cat #1.02439.0500) and Erythrosin 0.5% solution (VWR, cat #1.15936.0010), and rinsed in with ethanol. Sections were then incubated for 2 minutes in Safranin, and were eventually dehydrated and mounted using the CV Mount medium (Leica, cat #046430011).
(§1) Liver sections were deparaffinized, rehydrated and incubated for 15 minutes in a solution of Fast Green FCF 0.1% (Sigma-Aldrich, cat #F7258) before rinsing in a bath of 0.5% acetic acid (Panreac, cat #131008.1611). Then, the liver sections were rinsed in water and incubated 30 minutes in a solution of 0.1% sirius red (Direct Red 80, Fluka cat #43665) in saturated aqueous picric acid (Sigma-Aldrich cat #P6744). Sections were then dehydrated, and mounted using the CV Mount medium (Leica, cat #14046430011).
(§2) A technician blinded to the source of each liver specimen performed histological examinations. Virtual slides were generated using the Pannoramic 250 scanner from 3D Histech. For each animal, a score summarizing the main histological lesions of NASH was attributed according to the NASH Clinical Research Network (Kleiner 2005, Brunt 1999). Briefly, steatosis, lobular inflammation and hepatocyte ballooning were scored. The NAFLD Activity Score (NAS) was established for each individual as the unweighted sum of the steatosis (0-3), lobular inflammation (0-3) and the ballooning (0-2) injury grading.
(§3) Using Quant Center software (3D Histech, including Pattern Quant and Histo Quant modules), collagen-stained areas were quantified. Briefly, Pattern Quant was used to detect the tissue and measure its surface. Then, Histo Quant was used to detect the stained collagen content and measure its surface, based on a color threshold method. The fibrosis area was then expressed as the percentage of the collagen surface to the whole tissue per animal.
The hepatic collagen content was determined using the appropriate QuickZyme kit (Total collagen assay, cat #QZB-totcol2). The assay is based on the detection of hydroxyproline, which is a non-proteinogenic amino acid mainly found in the triple helix of collagen. […]

In test [2] the test system is fibrosing NASH-model of rats fed a CDAA+1% cholesterol diet. Put plainly: Chronic CDAA+1% cholesterol rat model: liver histology (picrosirius fibrosis surface, NASH lesions). Type of test: in vivo, Wistar rats. The settings on record: GFT505 3 mg/kg/d, OCA 10 mg/kg/d, alone or combined; 12 weeks in diet. The protocol:
(§4) The preventive effects of Elafibranor alone, OCA alone and the combination of both were assessed in a fibrosing NASH-model of rats fed a CDAA+1% cholesterol diet. 150-175 g male Wistar rats were fed a control (CSAA) diet, CDAA+1% cholesterol diet, or CDAA+1% cholesterol diet supplemented with Elafibranor 1, 3 and 10 mg/kg/day, OCA 10 and 30 mg/kg/day or combined drugs (Elafibranor 1, 3 and 10 mg/kg/day combined to OCA 10 mg/kg/day) for 12 weeks.
(§5) The body weight and the food intake were monitored twice per week. On the last day of treatment, rats were sacrificed after a 6 h fasting period. The liver was rapidly excised for biochemical and histological studies.
The liver slices were first fixed for 12 hours in formalin 4% solution. Then, the liver pieces were washed 30 minutes in PBS, and dehydrated in ethanol solutions (successive baths at 70, 80, 95 and 100% ethanol). The liver pieces were incubated in three different baths of Xylene (Sigma-Aldrich cat #534056), followed by two baths in liquid paraffin (56° C.). Liver pieces were then put into racks that were gently filled with HISTOWAX to completely cover the tissue.
The paraffin blocks containing the tissue pieces were removed from the racks and stored at room temperature. The liver blocks were cut into 3 μm slices.
Liver sections were deparaffinized, rehydrated and incubated for 3 minutes in Mayer's Hematoxylin (Microm, cat #F/C0303). Then, the liver sections were rinsed in water and incubated 1 minute in Eosin G (VWR, cat #1.09844.1000). Sections were rinsed in water then dehydrated, and mounted using the CV Mount medium (Leica, cat #14046430011).
as §1
as §2, with “hepatocytes” for “hepatocyte”, “(NAS score)” for “(NAS)”
as §3

The test system is the same in test [3]. The test can be described thus: Chronic CDAA+1% cholesterol rat model: hepatic collagen content (hydroxyproline). Type of test: in vivo, Wistar rats. The note with it: GFT505 3 mg/kg/d, OCA 10 mg/kg/d, alone or combined; 12 weeks in diet. As to the method:
as §4, §5
The hepatic collagen content was determined using the appropriate QuickZyme kit (Total collagen assay, cat #QZB-totcol2). The assay is based on the detection of hydroxyproline, which is a non-proteinogenic amino acid mainly found in the triple helix of collagen. Thus, hydroxyproline in tissue hydrolysates can be used as a direct measure of the amount of collagen present in the tissue (without discrimination between procollagen, mature collagen and collagen degradation products).
Complete hydrolysis of tissue samples in 6M HCl at 95° C. is required before dosing the hydroxyproline. The assay results in the generation of a chromogen with a maximum absorbance at 570 nm. Results are expressed as mg of collagen/g of liver.

Test [4] has the same test system. The test can be described thus: Chronic CDAA+1% cholesterol rat model: hepatic gene expression (qPCR). Type of test: in vivo, Wistar rats. The settings on record: liver; GFT505 3 mg/kg/d, OCA 10 mg/kg/d, alone or combined; 12 weeks. The protocol:
as §4, §5
Total RNA was isolated from rat livers using RNeasy Mini Kit (Qiagen) following manufacturer's instructions. Total RNA were reverse transcribed into cDNA using M-MLV RT (Moloney Murine Leukemia Virus Reverse Transcriptase) (Invitrogen cat #28025) in 1×RT buffer (Invitrogen), 0.5 mM DTT (Invitrogen), 0.18 mM dNTPs (Promega), 200 ng pdN6 (Amersham) and 30 U of RNase inhibitor (Promega).
Quantitative PCR was then carried out using the CFX96 TOUCH Real-Time PCR Detection System (Biorad). Briefly, the PCR reactions were performed in 96-WP format in 25 μl of total volume containing 1 μL of reverse transcription reaction, 0.5 μL of reverse and forward primers (10 pmol each), and 12.5 μl of 2×iQ SYBR Green Supermix (BioRad), using the following primer sequences:
Expression levels were normalized using the expression of RPLP0 gene as a housekeeping gene of reference in samples. For each gene, the standard curves were drawn by selecting the best points (at least three points) in order to have PCR reaction efficiency close to 100% and a correlation coefficient close to 1. Expression levels were determined using the standard curve equation for both the housekeeping gene and the target gene (taking into account the specific PCR efficiency of each target gene).

On to `CCCCOCCOc1ccc(-c2ccc3c(c2)/C=C(/C(=O)Nc2ccc([S@@+]([O-])Cc4cncn4CCC)cc2)CCCN3CC(C)C)cc1` [CVC, Cenicriviroc, reference compound], for which the “antifibrotic activity (α-SMA), single agent” value in the test with TGFβ1-induced hHSC (5 μM of CVC alone) is listed as “does not show any antifibrotic activity”; with TGFβ1-induced hHSC (TGFβ1-activated hHSC, dose range) it was “did not show a significant effect at all doses”.
Regarding `CN(C)c1cccc(-c2c3c(=O)n(-c4ccccc4Cl)[nH]c3cc(=O)n2C)c1` [GKT-831, 2-(2-chlorophenyl)-4-[3-(dimethylamino)phenyl]-5-methyl-1H-pyrazolo[4,3-c]pyridine-3,6(2H,5H)-dione, reference compound], the “effect on NASH and fibrosis” value in test [1] (GKT-831 60 mg/kg/day alone) is listed as “no beneficial effect”.
Consider `COc1ccccc1[C@H](Cn1c(=O)n(C(C)(C)C(=O)O)c(=O)c2c(C)c(-c3ncco3)sc21)OC1CCOCC1` [GS-0976, reference compound], for which the “effect on liver fat and body weight” value in test [1] (GS-0976 30 mg/kg/day alone) is “mild beneficial effect”.
As to `CC[C@H]1[C@@H](O)[C@@H]2[C@H](CC[C@]3(C)[C@@H]([C@H](C)CCC(=O)O)CC[C@@H]23)[C@@]2(C)CC[C@@H](O)C[C@@H]12` [OCA, obeticholic acid, reference compound], the “Fibrosis surface, percentage over the untreated CDAA + 1% cholesterol rats” value in test [2] was 74% ± 45%. Further, the “Hepatic collagen content, percentage over the untreated CDAA + 1% cholesterol rats” value in test [3] is given as 67% ± 23%. Further, in test [4], the “CCR5 mRNA level (marker of inflammation), percentage over the untreated CDAA + 1% cholesterol rats” value is listed as 81% ± 28%; the “TGFβ1 mRNA level, percentage over the untreated CDAA + 1% cholesterol rats” value is 110% ± 23%; the “TIMP1 mRNA level, percentage over the untreated CDAA + 1% cholesterol rats” value is recorded as 110% ± 43%; the “αSMA mRNA level, percentage over the untreated CDAA + 1% cholesterol rats” value is listed as 109% ± 68%.
Regarding `Cc1cc(F)c(C(=O)Nc2cccc(-c3nncn3C(C)C)n2)cc1-n1cnc(C2CC2)c1` [Selonsertib, reference compound], the “hepatic fibrosis (histology, hepatic collagen content, PIIINP and TIMP-1)” value in test [1] (elafibranor 3 mg/kg/day, selonsertib 30 mg/kg/day, alone or combined) is listed as “improved hepatic fibrosis in this model, albeit to a minor extent than elafibranor”.
